The nature of this data set: logP determination by HPLC on reverse-phase column (C 18), EEC directive 79/831 Annex V.A8. The class given is physicochemical. Here is the method:
In the acidic range, the determination is carried out at pH 2.3 using the mobile phases 0.1% aqueous phosphoric acid and acetonitrile; linear gradient from 10% acetonitrile to 90% acetonitrile.
In the neutral range, the determination is carried out at pH 7.5 using the mobile phases 0.01 molar aqueous phosphate buffer solution and acetonitrile; linear gradient from 10% acetonitrile to 90% acetonitrile.

[1] abbreviates: reverse-phase HPLC column (C 18), pH 2.3, acidic range, pH 2.3; 0.1% aqueous phosphoric acid/acetonitrile gradient; 43° C.; values marked a).
[2] abbreviates: reverse-phase HPLC column (C 18), pH 7.5, neutral range, pH 7.5; 0.01 molar aqueous phosphate buffer/acetonitrile gradient; 43° C.; values marked b).

This passage reports chromatographic logP and logP results from patent US7250521B2, “Method for production of Δ1-pyrrolines” (Bayer CropScience Aktiengesellschaft, priority 2001, dated 2007).

SMILES strings stand for the structures.

For `CC(=O)c1ccc(C2CCC(c3ccccc3Cl)=N2)cc1` (centres unmarked) [Example 75], the chromatographic logP is 1.88 under setting [1] and 3.06 under setting [2].

Under setting [1], `CC(C)(C)c1ccc(C2CCC(=O)N2)cc1` (centres unmarked) [Example V-4] displayed a chromatographic logP of 1.9.

`CC(C)(C)OC(=O)N1C(=O)C(C(=O)c2ccccc2Br)CC1c1ccc(OC(F)(F)F)cc1` (centres unmarked) [II-1, tert-butyl 3-(2-bromobenzoyl)-2-oxo-5-[4-(trifluoromethoxy)phenyl]-1-pyrrolidinecarboxylate] yielded a chromatographic logP under setting [2] of 3.35.

Take `Cc1ccc(C2CCC(=O)N2)cc1` (centres unmarked) [Example V-14]: the chromatographic logP under setting [1] amounted to 1.52.

For `O=C1CCC(c2ccc(F)c(F)c2)N1` (centres unmarked) [Example V-13], the chromatographic logP under setting [1] was determined as 1.43.

Compound `Cc1ccc(C2CCC(c3ccccc3Cl)=N2)c(Cl)c1` (centres unmarked) [Example 38] returned a chromatographic logP under setting [1] of 3.52 and a chromatographic logP under setting [2] of 4.86.

Under setting [1], `Cc1cc(Cl)ccc1C1CCC(=O)N1` (centres unmarked) [Example V-6] registered a chromatographic logP of 1.86.

As for `Fc1ccc(C2CCC(c3ccc(C(F)(F)F)cc3)=N2)cc1` (centres unmarked) [Example 64], the chromatographic logP was 2.73 under setting [1] and 4.2 under setting [2].

Take `CSc1ccc(C2CCC(=O)N2C(=O)OC(C)(C)C)cc1` (centres unmarked) [III-15]: the chromatographic logP under setting [1] turned out to be 2.84 and the chromatographic logP under setting [2] is 2.83.

Compound `FC(F)(F)Oc1ccc(-c2ccc(C3CCC(c4ccccc4C(F)(F)F)=N3)cc2)cc1` (centres unmarked) [Example 3] returned a chromatographic logP under setting [1] of 5.11.

As to `Cc1ccccc1C1=NC(c2ccc(-c3ccc(SC(F)(F)F)cc3)cc2)CC1` (centres unmarked) [Example 18], the chromatographic logP runs as follows: under setting [1], 3.25; under setting [2], 6.1.

`O=C1CCC(c2ccc(Cl)cc2Cl)N1` (centres unmarked) [Example V-8] yielded a chromatographic logP under setting [1] of 2.02.

For the compound `Fc1cccc(F)c1C1=NC(c2ccc(OCc3ccc(Cl)cc3)cc2)CC1` (centres unmarked) [Example 107], the chromatographic logP under setting [1] stood at 3.26.

For `Fc1ccc(C2CCC(c3ccccc3Cl)=N2)cc1` (centres unmarked) [Example 95], the chromatographic logP runs as follows: under setting [1], 2; under setting [2], 3.68.

Under setting [1], `COc1ccc(C2CCC(c3ccccc3Br)=N2)cc1F` (centres unmarked) [Example 43] returned a chromatographic logP of 2.22.

As for `FC(F)(F)Oc1ccc(C2CCC(c3ccccc3Br)=N2)cc1` (centres unmarked) [Example 53], the logP (acidic range, pH 2.3; 0.1% aqueous phosphoric acid/acetonitrile gradient; 43° C.; values marked a)) was 3.63^a).

For `Cc1ccccc1C1=NC(c2ccccc2)CC1` (centres unmarked) [Example 94], the chromatographic logP reads like this: under setting [1], 1.29; under setting [2], 3.7.

For `Fc1cccc(F)c1C1=NC(c2ccc(C3CCCCC3)cc2)CC1` (centres unmarked) [Example 78], the chromatographic logP was 3.84 under setting [1] and 5.56 under setting [2].

With `Clc1cccc(C2=NC(c3ccccc3)CC2)c1` (centres unmarked) [Example 48], the chromatographic logP under setting [1] was found to be 1.73 and the chromatographic logP under setting [2] is 3.97.

Regarding `Cc1ccccc1C1=NC(c2ccc(C(C)(C)C)cc2)CC1` (centres unmarked) [Example 27], the chromatographic logP under setting [1] stood at 2.31.

Take `CCOc1cc(C(C)(C)C)ccc1C1CCC(c2ccccc2Cl)=N1` (centres unmarked) [Example 52]: the chromatographic logP under setting [1] worked out at 3.01 and the chromatographic logP under setting [2] was determined as 5.78.

In the case of `FC(F)(F)Oc1ccc(-c2ccc(C3CCC(c4ccc(Cl)cc4Cl)=N3)cc2)cc1` (centres unmarked) [Example 8], the chromatographic logP under setting [1] worked out at 5.69.

In the case of `COc1ccc(C2CCC(c3ccccc3F)=N2)cc1` (centres unmarked) [Example 87], the chromatographic logP reads like this: under setting [1], 1.21; under setting [2], 3.32.

Compound `CC(C)(C)OC(=O)N1C(=O)CCC1c1ccc(F)c(F)c1` (centres unmarked) [III-12] came in with a chromatographic logP under setting [1] of 2.67.

On to `Clc1ccccc1C1=NC(c2ccc(CCc3ccccc3)cc2)CC1` (centres unmarked) [Example 70], for which the chromatographic logP reads like this: under setting [1], 3.47; under setting [2], 5.33.

Turning to `CC(C)(C)OC(=O)N1C(=O)C(C(=O)c2ccc(Cl)cc2)CC1c1ccc(F)cc1` (centres unmarked) [II-2], under setting [1], the chromatographic logP was found to be 4.13.

On to `Cc1ccc(C2CCC(c3ccccc3Br)=N2)cc1Cl` (centres unmarked) [Example 62], for which the chromatographic logP by setting is: under setting [1], 3.36; under setting [2], 4.69.

Consider `FC(F)(F)c1ccccc1C1=NC(c2ccc(Br)cc2)CC1` (centres unmarked) [Example 2], for which the chromatographic logP under setting [1] was determined as 3.9.

As a reminder, the chromatographic logP is lipophilicity estimated from chromatographic retention. Low values mean a more hydrophilic compound, high ones a more lipophilic compound.
